ChEMBL document CHEMBL5335787, “Fragment-based and structure-guided discovery of perforin inhibitors” (Eur J Med Chem, 2023)

What was measured:
[1] = Cytotoxicity against human KHYG-1 cells assessed as cell viability at 1 uM measured after 24 hrs by trypan blue staining based analysis relative to control; assay type: toxicity; settings: read-out: Activity
[2] = target: T1, Perforin-1 (Homo sapiens) (UniProt P14222); assay: Inhibition of perforin-dependent cell killing activity of human KHYG-1 cells assessed as reduction in cytotoxicity against K562 cells preincubated for 20 mins followed by 51Cr labelled K562 cells addition and measured after 4 hrs by gamma counter analysis; assay type: cell-based; settings: time 260.0 min
T1 sequence (whole entry): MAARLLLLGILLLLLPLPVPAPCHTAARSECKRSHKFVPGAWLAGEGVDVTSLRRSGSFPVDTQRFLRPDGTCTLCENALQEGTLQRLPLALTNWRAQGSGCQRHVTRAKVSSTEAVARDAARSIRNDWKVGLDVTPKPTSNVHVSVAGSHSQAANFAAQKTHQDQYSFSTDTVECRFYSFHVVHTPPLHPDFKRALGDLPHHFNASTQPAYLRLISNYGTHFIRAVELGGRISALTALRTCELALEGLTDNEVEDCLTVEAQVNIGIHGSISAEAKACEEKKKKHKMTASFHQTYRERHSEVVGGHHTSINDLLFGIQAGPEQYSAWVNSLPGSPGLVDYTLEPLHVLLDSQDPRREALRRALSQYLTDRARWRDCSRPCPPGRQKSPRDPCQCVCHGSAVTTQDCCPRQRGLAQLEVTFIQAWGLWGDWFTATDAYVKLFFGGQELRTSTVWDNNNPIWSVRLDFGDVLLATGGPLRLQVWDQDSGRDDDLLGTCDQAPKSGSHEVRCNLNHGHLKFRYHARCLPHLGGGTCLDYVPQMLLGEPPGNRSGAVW

[3] = target: T2, Perforin-1 (Mus musculus) (UniProt P10820); assay: Binding affinity to recombinant mouse perforin expressed in baculovirus-infected Sf21 cells assessed as change in chemical shift by 19F NMR assay
T2 sequence (whole entry): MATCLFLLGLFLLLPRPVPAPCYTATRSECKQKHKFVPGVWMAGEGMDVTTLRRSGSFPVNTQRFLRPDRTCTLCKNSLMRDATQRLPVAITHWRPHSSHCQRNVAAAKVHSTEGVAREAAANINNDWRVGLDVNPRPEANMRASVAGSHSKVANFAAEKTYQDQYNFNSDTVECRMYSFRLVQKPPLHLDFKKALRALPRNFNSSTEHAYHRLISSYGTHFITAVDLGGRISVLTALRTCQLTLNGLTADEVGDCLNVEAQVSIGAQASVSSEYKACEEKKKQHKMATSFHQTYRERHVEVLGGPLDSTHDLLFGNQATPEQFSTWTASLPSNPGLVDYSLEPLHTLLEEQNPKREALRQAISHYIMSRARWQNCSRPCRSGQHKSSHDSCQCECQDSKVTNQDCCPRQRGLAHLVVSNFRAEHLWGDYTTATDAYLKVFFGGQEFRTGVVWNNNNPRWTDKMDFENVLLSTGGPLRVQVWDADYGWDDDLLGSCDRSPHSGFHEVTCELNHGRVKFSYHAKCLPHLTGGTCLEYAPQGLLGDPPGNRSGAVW

[4] = Cytotoxicity against human KHYG-1 cells assessed as cell viability at 0.38 uM measured after 24 hrs by trypan blue staining based analysis relative to control; assay type: toxicity; settings: read-out: Activity
Perforin-1 [5] = target: T3, Perforin-1 (Mus musculus, UniProt P10820); assay: Binding affinity to lipid-coated L1 chip immobilised recombinant mouse perforin expressed in baculovirus-infected Sf21 cells by SPR analysis
T3 sequence (P10820 whole entry): T2 sequence (whole entry)

Perforin-1 [6] = target: T3, Perforin-1; assay: Binding affinity to CM5 chip immobilised recombinant mouse perforin expressed in baculovirus-infected Sf21 cells by SPR analysis
[7] = Cytotoxicity against human KHYG-1 cells assessed as cell viability at 0.24 uM measured after 24 hrs by trypan blue staining based analysis relative to control; assay type: toxicity; settings: read-out: Activity
HepG2 = assay: Cytotoxicity against human HepG2 cells assessed as reduction in cell viability at 0.001 to 100 uM incubated for 5 days by SRB assay; assay type: toxicity, cell-based; settings: hepg2, 120 h, dose 0.001-100 µM, time 5 day
[8] = target: T1, Perforin-1 (Homo sapiens); assay: Inhibition of perforin-dependent cell killing activity of human KHYG-1 cells assessed as reduction in cytotoxicity against K562 cells at 100 uM preincubated for 20 mins followed by 51Cr labelled K562 cells addition and measured after 4 hrs by gamma counter analysis relative to control; assay type: cell-based; settings: time 260.0 min

Row | Compound | viability at 24 h, 1 µM [1] [%] | IC90 [2] [nM] | other results
1 | Cc1cc(C(=O)Nc2ccc(C)c(-c3cnc(N)nc3)c2)ccc1N | > 85 | > 30000 | 
2 | Cc1ccc(S(=O)(=O)c2ccc3[nH]ncc3c2)cc1-c1cnc(N)nc1 | > 85 | 281 | 
3 | Cc1ccc(S(=O)(=O)c2ccc(N)cc2)cc1-c1cccnc1 |  | 43000 | 
4 | Cc1ccc(S(=O)(=O)c2ccc3c(c2)CCN3)cc1-c1ccc2n[nH]cc2c1 | > 85 | 1040 | 
5 | Cc1ccc(S(=O)(=O)c2ccc3c(c2)CCN3)cc1-c1ccc(N)nc1 | > 85 | 361 | 
6 | Cc1cc(S(=O)(=O)c2ccc(C)c(-c3cnc(N)nc3)c2)c(C(F)(F)F)cc1N |  | 203 | Activity [3]: 7.6 Hz
7 | Cc1cc(S(=O)(=O)Nc2ccc(C)c(-c3cnc(N)nc3)c2)ccc1N | > 85 | 70 | 
8 | Cc1ccc(S(=O)(=O)c2ccc3c(c2)CCNC3=O)cc1-c1cnc(N)nc1 | > 85 | 40 | 
9 | Cc1cc(S(=O)(=O)c2ccc3c(c2)CCN3)ccc1-c1cnc(N)nc1 | > 85 | > 3000 | 
10 | Cc1ccc(S(=O)(=O)c2ccc3c(c2)CCN3)cc1-c1cnc2n[nH]cc2c1 | 56 | 40 | viability at 24 h, 0.38 µM [4]: 97%
11 | Cc1cc(NC(=O)c2ccc(C)c(-c3cnc(N)nc3)c2)ccc1N | > 85 | > 30000 | 
12 | Cc1cc(S(=O)(=O)c2ccc(C)c(-c3cnc(N)nc3)c2)ccc1N | > 85 | 169 | Kd (Perforin-1 [5]): ~200 nM; Kd (Perforin-1 [6]): 110000 nM
13 | Cc1cc(S(=O)(=O)c2ccc(C)c(-c3cnc(N)nc3)c2)ccc1C(N)=O | > 85 | 155 | 
14 | CNC(=O)Nc1ccc(-c2cc(S(=O)(=O)c3ccc4c(c3)CCN4)ccc2C)cc1 | > 85 | 4460 | 
15 | Cc1ccc(S(=O)(=O)c2ccc3c(c2)CCO3)cc1-c1cnc(N)nc1 | > 85 | 160 | 
16 | Cc1ccc(S(=O)(=O)c2ccc3c(c2)CCN3C)cc1-c1cnc(N)nc1 | > 85 | 406 | 
17 | CCNc1ccc(S(=O)(=O)c2ccc(C)c(-c3cnc(N)nc3)c2)c(C(F)(F)F)c1 |  | 31 | Activity [3]: 14.5 Hz
18 | Cc1ccc(S(=O)(=O)c2ccc(N)cc2)cc1-c1cnc(N)nc1 |  | 3400 | 
19 | Nc1ccc(S(=O)(=O)c2cccc(-c3cnc(N)nc3)c2)c(C(F)(F)F)c1 |  | 131 | Activity [3]: 8.5 Hz
20 | Cc1cc(C(N)=O)cc(S(=O)(=O)c2ccc(C)c(-c3cnc(N)nc3)c2)c1 |  | 29 | viability at 24 h, 0.24 µM [7]: 64%
21 | Cc1ccc(S(=O)(=O)c2ccc3c(c2)CCN3)cc1-c1cnc(N)nc1 | > 85 | 30 | Kd (Perforin-1 [5]): ~200 nM; Kd (Perforin-1 [6]): 85000 nM; Activity (HepG2): Non-Toxic
22 | Cc1cc2c(cc1-c1cnc(N)nc1)S(=O)(=O)c1ccc(C(N)=O)cc1CC2C (stereo not drawn) | 76 | 40 | 
23 | Cc1ccc(NS(=O)(=O)c2ccc3c(c2)CCN3)cc1-c1cnc(N)nc1 | > 85 | 33 | 
24 | Cc1cc(NS(=O)(=O)c2ccc(C)c(-c3cnc(N)nc3)c2)ccc1N | > 85 | 2290 | 
25 | Cc1ccc(S(=O)(=O)c2ccc(N)cc2C(F)(F)F)cc1-c1cnc(N)nc1 |  | 21 | Activity [3]: 13.2 Hz
26 | Cc1ccc(S(=O)(=O)c2ccc3[nH]ccc3c2)cc1-c1cnc(N)nc1 | > 85 | 496 | 
27 | Cc1ccc(NS(=O)(=O)c2ccc(N)cc2C(F)(F)F)cc1-c1cnc(N)nc1 |  | 1900 | Activity [3]: 5.5 Hz
28 | Cc1ccc(S(=O)(=O)c2ccc3c(c2)CNC3=O)cc1-c1cnc(N)nc1 | > 85 | 199 | 
29 | Nc1ccc(S(=O)(=O)c2ccc(N)cc2)cc1 [DAPSONE] |  | > 100000 | Activity (HepG2): Non-Toxic; inhibition [8]: 65%
